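Cultured in 96-well plates, cells were exposed to test compound for 48 hours across five concentrations. The concentration for 50% growth inhibition is given as GI50.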 Active and inactive are the calls of the source. No stated cut-off is given here; in the data, active = GI50 up to about 1.1 µM and inactive = higher.
What was measured:
Test in all cases: inhibition of tumour cell growth, NCI panel, 48 h
[1] = system: OVCAR-3
[2] = system: UACC-62
[3] = system: SK-MEL-28
[4] = system: SK-MEL-2
[5] = system: MDA-MB-435
[6] = system: HOP-62
[7] = system: CCRF-CEM
[8] = system: T47D
[9] = system: LOX IMVI
[10] = system: SK-OV-3
[11] = system: U-251
[12] = system: A549
[13] = system: SR
[14] = system: SK-MEL-5
[15] = system: OVCAR-8
[16] = system: UACC-257
[17] = system: DMS-114
[18] = system: HT-29
[19] = system: SNB-75
[20] = system: NCI/ADR-RES

Compound	GI50 [1]	GI50 [2]	GI50 [3]	GI50 [4]	GI50 [5]	GI50 [6]	GI50 [7]	GI50 [8]	GI50 [9]	GI50 [10]	GI50 [11]	GI50 [12]	GI50 [13]	GI50 [14]	GI50 [15]	GI50 [16]	GI50 [17]	GI50 [18]	GI50 [19]	GI50 [20]
Oc1ncc(N(CCCl)CCCl)c(O)n1 [URACIL MUSTARD]	74.6 µM (inactive)	6.7 µM (inactive)	67.8 µM (inactive)	> 97.3 µM (inactive)	64 µM (inactive)	15 µM (inactive)	2.1 µM (inactive)	12.9 µM (inactive)	14.1 µM (inactive)	47.2 µM (inactive)	15.2 µM (inactive)	23.3 µM (inactive)	1.58 µM (inactive)	41.8 µM (inactive)	42.2 µM (inactive)	51.1 µM (inactive)	14 µM (inactive)	69.8 µM (inactive)	26.3 µM (inactive)	23.7 µM (inactive)
CC1(C)C(=O)/C=C\C(=O)C(C)(C)C2=CC=C(O2)C(C)(C)C(=O)C(Br)C(Br)C(=O)C(C)(C)C2=CC=C1O2 (stereo not given)	29.9 µM (inactive)	24 µM (inactive)	76.7 µM (inactive)	99.1 µM (inactive)	34.4 µM (inactive)	> 100 µM (inactive)	1.93 µM (inactive)	> 81.7 µM (inactive)	23 µM (inactive)	> 100 µM (inactive)	41.4 µM (inactive)	> 100 µM (inactive)	2.12 µM (inactive)	45 µM (inactive)	12 µM (inactive)	83.8 µM (inactive)	> 31.6 µM (inactive)	41.8 µM (inactive)	51.6 µM (inactive)	23.2 µM (inactive)
O=Cc1cc2c(s1)C(=O)c1sccc1C2=O	0.222 µM (active)	0.248 µM (active)	0.176 µM (active)	0.337 µM (active)	0.0187 µM (active)	1.82 µM (inactive)	0.476 µM (active)	2.28 µM (inactive)	0.0376 µM (active)	2.15 µM (inactive)	0.314 µM (active)	0.813 µM (active)	0.303 µM (active)	0.129 µM (active)	0.338 µM (active)	0.345 µM (active)	0.188 µM (active)	1.88 µM (inactive)	0.19 µM (active)	0.188 µM (active)
